Assay results taken from US11400070B2, “Methods of treating retinal diseases” (Alimera Sciences, Inc., priority 2018, dated 2022).
Where two headings read alike, the source gives them in different places. Each block holds one compound with its values, some of them ahead of it.

How the values were obtained:
[1] = tested on: ARPE-19 monolayers; assay: Suppression of gHSA-induced reduction of TEER in confluent ARPE-19 monolayers; assay type: cell-based
[2] = tested on: ARPE-19 monolayers; assay: Cytotoxicity by microscopic inspection of monolayers and TEER reduction; assay type: cell-based; conditions: for Cytotoxic: ARPE-19 monolayers, any concentration tested; for Cytotoxicity observed: any of the concentrations tested
Description: Cytotoxicity of test compounds was assessed by microscopic inspection of cellular monolayers and reductions in TEER following the administration of test compounds. All compounds were formulated fresh on the day of the experiment. Final concentrations were prepared by serial dilutions in DMEM media. Separate vehicle controls were prepared for each study. Formulation for all agents utilized vehicles containing less than 0.1% DMSO.

[3] = tested on: C57bl/6 female mice; assay: Laser-induced choroidal neovascularization at Bruch's membrane rupture sites; assay type: in vivo, mouse; conditions: 40 mg/kg daily s.c., 3 days before to 1 week after laser
Description: Choroidal neovascularization was induced by methods known to one of ordinary skill in the art. […] Am J Pathol 1998; 153(5):1641-6. Adult C57bl/6 female mice (Charles River, Wilmington, Mass.), 5 weeks of age, were given daily subcutaneous injections of 40 mg/kg metipranolol or vehicle (PBS containing 5.8% ethanol) every day, starting 3 days before laser-induced Bruch's membrane rupture and continuing through 1 week after laser treatment. Mice were anesthetized, with a mixture of ketamine (100 mg/kg) and xylazine (5 mg/kg) by intraperitoneal injections, and pupils were dilated with 0.5% tropicamide and 0.5% phenylephrine hydrochloride from Santen Pharmaceutical Co., Osaka, Japan. […] Following 1 week after laser, animals were euthanized and choroidal neovascularization was measured. […] The remaining eyecups consisting of the retinal pigmented epithelium, choroid, and sclera were stained with FITC-labeled Griffonia Simplicifolia lectin (GSA), which selectively stains vascular cells, fluorescent images were captured with an Axioskop microscope from Zeiss, Thornwood, N.Y., and the area of choroidal neovascularization at Bruch's membrane rupture sites were measured. These images were quantified using Image-Pro Plus software. […]

[4] = tested on: rd10 mice; assay: Outer nuclear layer (ONL) thickness in rd10 mice; assay type: in vivo, mouse; conditions: P35; 40 mg/kg daily s.c.; 6 locations measured
Description: (§1) Mice were treated in accordance with the Association for Research in Vision and Ophthalmology. Rd10^+/+ mice (B6.CXB1-Pde6brd10/J) were given daily subcutaneous injections of 40 mg/kg metipranolol provided by the British Pharmacopoeia Commission Laboratory, Tddington, UK or vehicle (PBS containing 5.8% ethanol) between P14 to P65.
Measurements of ONL thickness were performed using methods known to one of skill in the art. See Lee S Y, Usui S, Zafar A B, et al. N-acetylcysteine promotes long term survival of cones in a model of retinitis pigmentosa. 2010; 226:1843-9. Briefly, 10 micron frozen ocular sections were cut in the 12:00 to 6:00 meridian, stained with hematoxylin and eosin, visualized with an Axioskop microscope from Zeiss, Thornwood, N.Y. and images were digitized using a three charge-coupled device (CCD) color video camera from Toshiba, Tokyo, Japan, and a frame grabber. […] Three separate sections were used for each mouse and averaged. Eight animals injected with vehicle and 9 animals injected with metipranolol were used to evaluate ONL thickness between these two groups.

[5] = tested on: rd10 mice; assay: Scotopic and photopic electroretinogram recordings in rd10 mice; assay type: in vivo, mouse
Description: as §1
Scotopic and photopic electroretinograms (ERGs) were recorded using a Diagnosys instrument (Espion, Littleton, Mass.). See Komeima K, Rogers B S, Lu L, Campochiaro P A. Antioxidants reduce cone cell death in a model of retinitis pigmentosa. Proc Natl Acad Sci USA 2006; 103:11300-5 and Komeima K, Rogers B S, Campochiaro P A. Antioxidants slow photoreceptor cell death in mouse models of retinitis pigmentosa. J Cell Physiol 2007; 213:809-15. For scotopic recordings, rd10 mice were dark adapted for overnight, anesthetized with a mixture of ketamine (100 mg/kg) and xylazine (5 mg/kg) by intraperitoneal injections, and pupils were dilated with 0.5% tropicamide and 0.5% phenylephrine hydrochloride provided by Santen Pharmaceutical Co., Osaka, Japan. Mice were placed on a heating pad and platinum electrodes were placed on the corneas after application of gonioscopic prism solution provided by Alcon Labs, Fort Worth, Tex. Reference electrode was attached subcutaneously between the eyes on the scalp and a ground electrode was attached to the tail. The Ganzfeld illuminator was then placed over the head in a position to ensure equal illumination to both eyes. Scotopic ERGs were recorded at 11 flash intensities (−4, −2.5, −2.2, −1.79, −1.39, −1, −0.6, −0.39, −0.20, 1.0, 1.39 log cd-s/m2). For each flash intensity, 5 readings were taken and averaged. For photopic ERGs, mice were initially light adapted for 7 minutes with 30 cd/m2 background light and flashed at 3 light intensities (0.6, 1.0, 1.39 log cd-s/m2). For each flash intensity, 5 readings were taken and averaged.

[6] = tested on: rd10 mice; assay: TUNEL assay in retinas of rd10 mice; assay type: in vivo, mouse; conditions: P23; 40 mg/kg daily s.c.
Description: as §1
Apoptotic cells were identified in retinas from P23 mice using the manufacturer's instructions for the In Situ Cell Death Detection Kit (Sigma Aldrich, St. Louis, Mo.).

[7] = tested on: rd10 mice; assay: Immunohistochemistry (rhodopsin, cone arrestin, 3-nitrotyrosine) of rd10 retinas; assay type: in vivo, mouse; conditions: 40 mg/kg daily s.c.
Description: as §1
Ten microns ocular frozen sections were stained with anti-rhodopsin antibody 1D4 (1:200, ThermoFisher Scientific, Waltham, Mass.), anti-3-nitrotyrosine antibody (10 μg/ml, EMD Millipore, Temecula, Calif.) or anti-cone arrestin antibody (1:10,000, EMD Millipore, Temecula, Calif.).

[8] = tested on: rd10 mice; assay: Cone cell density in rd10 mice; assay type: in vivo, mouse; conditions: P65; 40 mg/kg daily s.c.; 4 quadrants
Description: as §1
Cone cell density was measured by methods known by one of skill in the arts. See Komeima K, Rogers B S, Lu L, Campochiaro P A. Antioxidants reduce cone cell death in a model of retinitis pigmentosa. Proc Natl Acad Sci USA 2006; 103:11300-5 and Komeima K, Rogers B S, Campochiaro P A. Antioxidants slow photoreceptor cell death in mouse models of retinitis pigmentosa. J Cell Physiol 2007; 213:809-15. Briefly, mice at P65 were euthanized and the eyes were removed and fixed in 4% PFA for 1 hour followed by dissection to remove cornea, iris and lens. The retina was carefully isolated from the eyecup and a small incision was made at the nasal position for future orientation. […] The retinas were flat mounted and visualized by fluorescence microscopy using an excitation wavelength of 543 nm to detect rhodamine fluorescence of PNA.

[9] = tested on: rd10 mice; assay: Nitrite and nitrotyrosine assays in retinas of rd10 mice; assay type: in vivo, mouse; conditions: 40 mg/kg daily s.c.
Description: as §1
Nitrite concentration in retinas from P35 rd10 mice was measured using the Nitrate/Nitrite Colorimetric Assay Kit (Cayman Chemical Company, Ann Arbor, Mich.) according to the manufacturer's instructions. Nitrotyrosine assay was performed on retinas from P35 mice using the 3-Nitrotyrosine ELISA kit (Abcam, Cambridge, Mass.).

[10] = tested on: NADPH Oxidase; assay: NADPH Oxidase activity in retinas of rd10 mice; assay type: in vivo, mouse
[11] = tested on: rd10 mice; assay: Superoxide radicals (dihydroethidium dye) in rd10 retinas; assay type: in vivo, mouse; conditions: data not shown

Structure (SMILES): CC1(C)O[C@@H]2C[C@H]3[C@@H]4C[C@H](F)C5=CC(=O)C=C[C@]5(C)[C@@]4(F)[C@@H](O)C[C@]3(C)[C@]2(C(=O)CO)O1 [Fluocinolone, fluocinolone acetonide]
- Effect on reduction in TEER induced by gHSA ([1]; pretreatment 10^−6 to 10^−4 M, gHSA 100 μg/mL): did not significantly alter
- Cytotoxic [2]: No
- Cytotoxicity observed [2]: No cytotoxicity was observed

- EC50 ([1]; Homo sapiens, ARPE-19 assay, concentration-response, gHSA-induced TEER decrease, read-out: EC50): 1300 nM
- NADPH Oxidase activity [10]: did not reduce NADPH Oxidase activity
Structure (SMILES): CC(=O)Oc1c(C)cc(OCC(O)CNC(C)C)c(C)c1C (centres unmarked) [Metipranolol, metipranolol]
- Area of choroidal neovascularization at Bruch's membrane rupture sites vs vehicle [3]: significantly reduced
- Mean ONL thickness vs vehicle [4]: significantly greater at 4 of the 6 locations
- Mean scotopic b-wave amplitude vs vehicle ([5]; P35, 40 mg/kg daily s.c. from P14, all 11 flash intensities): significantly higher
- Mean scotopic a-wave amplitude vs vehicle ([5]; P35, 40 mg/kg daily s.c. from P14, flash 1.0 and 1.39 log cd-s/m2): significantly greater
- Photopic b-wave amplitudes vs vehicle ([5]; P35, 40 mg/kg daily s.c., 0.6 and 1.0 log cd-s/m2): significantly higher
- Mean scotopic b-wave amplitude vs vehicle ([5]; P50, 40 mg/kg daily s.c., 1.0 and 1.39 log cd-s/m2): significantly higher
- Mean photopic b-wave amplitude vs vehicle ([5]; P50, 40 mg/kg daily s.c., 1.39 log cd-s/m2): significantly greater
- TUNEL-positive cells in retina [6]: few TUNEL-positive cells
- Rhodopsin staining of outer segments ([7]; P35): substantially more rhodopsin staining
- Staining for cone arrestin ([7]; P50): robust
- Staining for nitrotyrosine ([7]; P50): greater staining for nitrotyrosine in retinas from P50 vehicle-treated rd10 mice, than in P50 metipranolol-treated rd10 mice
- Cytotoxic [2]: No
- Cytotoxicity observed [2]: No cytotoxicity was observed
- Mean cone photoreceptor cell density vs vehicle [8]: significantly greater in 3 of 4 quadrants
- Mean concentration of nitrite in retinal homogenates ([9]; P35): significantly greater in retinal homogenates from P35 vehicle-treated versus metipranolol-treated rd10 mice
- Mean concentration of 3-nitrotyrosine protein adducts (ELISA) vs vehicle ([9]; P35 retinas): significant reduction
- Superoxide radicals (dihydroethidium dye) vs vehicle [11]: no differences were found

- EC50 ([1]; read-out: EC50 for suppression of the decrease in TEER induced by gHSA, pretreatment, gHSA 100 μg/mL): 980 nM
Structure (SMILES): Cc1cc(OCC(O)CNC(C)C)c(C)c(C)c1O (centres unmarked) [Desacetylmetipranolol, desacetylmetipranolol]
- Effect on gHSA induced reduction in RPE resistance (TEER) ([1]; pretreatment 10 μM, 4 and 6 hours after gHSA): suppressed the gHSA induced reduction in RPE resistance
- Cytotoxic [2]: No
- Cytotoxicity observed [2]: No cytotoxicity was observed
